Laboratory results as given in PubChem BioAssay AID248 (DTP/NCI, 2004).
Inconclusive results and toxic doses are left out. No stated cut-off is given here; in the data, active means T/C of 150% or more; inactive means T/C below 125%.

Test system: L1210 leukemia ip in BDF1 mice, survival T/C
Assay: NCI In Vivo Anticancer Drug Screen. Data for tumor model L1210 Leukemia (intraperitoneal) in B6D2F1 (BDF1) mice
Details: endpoint: mean survival time, higher = longer survival
How it was run: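 Mice bearing the transplanted tumor received compound or vehicle. Survival of the treated group was divided by that of the vehicle-treated control group to give the ratio.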

[1] = dose: 50.0 mg/kg/injection, schedule: Q01DX009 (ip), vehicle: saline with Tween-80
[2] = dose: 100.0 mg/kg/injection, schedule: Q01DX009 (ip), vehicle: saline with Tween-80
[3] = dose: 100.0 mg/kg/injection, schedule: Q04DX003 (ip), vehicle: saline with Tween-80
[4] = dose: 200.0 mg/kg/injection, schedule: Q01DX009 (ip), vehicle: saline with Tween-80
[5] = dose: 100.0 mg/kg/injection, schedule: Q01DX009 (ip), vehicle: saline
[6] = dose: 100.0 mg/kg/injection, schedule: Q04DX003 (ip), vehicle: saline
[7] = dose: 200.0 mg/kg/injection, schedule: Q01DX009 (ip), vehicle: saline
[8] = dose: 200.0 mg/kg/injection, schedule: Q04DX003 (ip), vehicle: saline
[9] = dose: 400.0 mg/kg/injection, schedule: Q01DX009 (ip), vehicle: saline with Tween-80
[10] = dose: 200.0 mg/kg/injection, schedule: Q04DX003 (ip), vehicle: saline with Tween-80
[11] = dose: 400.0 mg/kg/injection, schedule: Q01DX009 (ip), vehicle: saline
[12] = dose: 50.0 mg/kg/injection, schedule: Q04DX003 (ip), vehicle: saline
[13] = dose: 100.0 mg/kg/injection, schedule: Q01DX009 (ip), vehicle: Klucel (hydroxypropylcellulose) (HPC)
[14] = dose: 200.0 mg/kg/injection, schedule: Q01DX009 (ip), vehicle: Klucel (hydroxypropylcellulose) (HPC)
[15] = dose: 25.0 mg/kg/injection, schedule: Q04DX003 (ip), vehicle: saline
[16] = dose: 400.0 mg/kg/injection, schedule: Q04DX003 (ip), vehicle: saline

Measured: T/C

Cc1ccc(NC(=O)Nc2ccc(C)c(NC(=O)Nc3ccc(C)c(Cl)c3)c2)cc1Cl
inactive: [1] 90 % of control | [2] 88 % of control | [3] 88 % of control | [4] 94 % of control

CCCN(CCC)CC(C)=O
inactive: [5] 98 % of control | [6] 107 % of control | [7] 101 % of control | [8] 109 % of control

Cc1cc(C(C)(C)C)c(Oc2ccc([N+](=O)[O-])cc2S(=O)(=O)O)c(C(C)(C)C)c1
inactive: [2] 86 % of control | [9] 88 % of control

O=C(CCN1CC=C(c2ccccc2)CC1)NCc1ccccc1
inactive: [2] 95 % of control | [3] 98 % of control | [4] 93 % of control | [10] 100 % of control | [9] 95 % of control | dose: 400.0 mg/kg/injection, schedule: Q04DX003 (ip), vehicle: saline with Tween-80 100 % of control

O=C1OC2CCCCC2/C1=C/OS(=O)(=O)C(F)(F)F (stereo not given)
inactive: dose: 12.5 mg/kg/injection, schedule: Q01DX009 (ip), vehicle: DMSO 105 % of control | dose: 25.0 mg/kg/injection, schedule: Q01DX009 (ip), vehicle: DMSO 103 % of control | dose: 50.0 mg/kg/injection, schedule: Q01DX009 (ip), vehicle: DMSO 110 % of control | dose: 100.0 mg/kg/injection, schedule: Q01DX009 (ip), vehicle: DMSO 110 % of control | dose: 200.0 mg/kg/injection, schedule: Q01DX009 (ip), vehicle: DMSO 117 % of control

CC1(C)C(C)(C)C1(Cl)Cl
inactive: [5] 100 % of control | dose: 100.0 mg/kg/injection, schedule: Q04DX003 (sc), vehicle: olive oil, sesame oil, peanut oil 112 % of control | [7] 100 % of control | dose: 200.0 mg/kg/injection, schedule: Q04DX003 (sc), vehicle: olive oil, sesame oil, peanut oil 96 % of control | [11] 100 % of control | dose: 400.0 mg/kg/injection, schedule: Q04DX003 (sc), vehicle: olive oil, sesame oil, peanut oil 107 % of control

COCCN=C(NCCOC)c1ccc(Nc2ncnc3nc[nH]c23)cc1
inactive: [12] 102 % of control | [6] 95 % of control

CCCNC(C)(C)C(SS)c1ccc(C(F)(F)F)cc1 (stereo not given)
inactive: dose: 12.5 mg/kg/injection, schedule: Q01DX009 (ip), vehicle: other 89 % of control | dose: 12.5 mg/kg/injection, schedule: Q04DX003 (ip), vehicle: other 94 % of control | dose: 25.0 mg/kg/injection, schedule: Q01DX009 (ip), vehicle: other 95 % of control | dose: 25.0 mg/kg/injection, schedule: Q04DX003 (ip), vehicle: other 96 % of control | dose: 50.0 mg/kg/injection, schedule: Q01DX009 (ip), vehicle: other 95 % of control | dose: 50.0 mg/kg/injection, schedule: Q04DX003 (ip), vehicle: other 89 % of control

OCC12COC(c3ccccc3)N1C(c1ccccc1)OC2 (stereo not given)
inactive: [13] 102 % of control | dose: 100.0 mg/kg/injection, schedule: Q04DX003 (ip), vehicle: Klucel (hydroxypropylcellulose) (HPC) 102 % of control | [14] 102 % of control | dose: 200.0 mg/kg/injection, schedule: Q04DX003 (ip), vehicle: Klucel (hydroxypropylcellulose) (HPC) 102 % of control | dose: 400.0 mg/kg/injection, schedule: Q01DX009 (ip), vehicle: Klucel (hydroxypropylcellulose) (HPC) 97 % of control | dose: 400.0 mg/kg/injection, schedule: Q04DX003 (ip), vehicle: Klucel (hydroxypropylcellulose) (HPC) 100 % of control

O=C(Sc1cccc(Br)c1)c1ccccc1
inactive: dose: 100.0 mg/kg/injection, schedule: Q01DX001 (ip), vehicle: other 100 % of control | dose: 200.0 mg/kg/injection, schedule: Q01DX001 (ip), vehicle: other 95 % of control | dose: 400.0 mg/kg/injection, schedule: Q01DX001 (ip), vehicle: other 94 % of control

CC(Cc1ccccc1)NCCc1c2ccccc2nc2ccccc12 (stereo not given)
inactive: dose: 12.5 mg/kg/injection, schedule: Q01DX009 (ip), vehicle: Klucel (hydroxypropylcellulose) (HPC) 101 % of control | dose: 25.0 mg/kg/injection, schedule: Q01DX009 (ip), vehicle: Klucel (hydroxypropylcellulose) (HPC) 102 % of control | dose: 50.0 mg/kg/injection, schedule: Q01DX009 (ip), vehicle: Klucel (hydroxypropylcellulose) (HPC) 98 % of control | [13] 104 % of control | [14] 91 % of control

Cc1ccc(N2CCNCC2)cc1
inactive: dose: 6.25 mg/kg/injection, schedule: Q04DX003 (ip), vehicle: saline 91 % of control | dose: 12.5 mg/kg/injection, schedule: Q04DX003 (ip), vehicle: saline 93 % of control | [15] 103 % of control

CCOC(=O)CCc1cc2cc(C)nnc2[nH]1
inactive: dose: 100.0 mg/kg/injection, schedule: Q04DX002 (ip), vehicle: Klucel (hydroxypropylcellulose) (HPC) 95 % of control | dose: 200.0 mg/kg/injection, schedule: Q04DX002 (ip), vehicle: Klucel (hydroxypropylcellulose) (HPC) 91 % of control | dose: 400.0 mg/kg/injection, schedule: Q04DX002 (ip), vehicle: Klucel (hydroxypropylcellulose) (HPC) 106 % of control

NC(=O)C[n+]1cccc(C(=O)Nc2ccc(Cl)cc2)c1
inactive: [3] 98 % of control | [10] 101 % of control

CSc1ccc(NC(=O)CCl)cc1
inactive: dose: 25.0 mg/kg/injection, schedule: Q01DX009 (ip), vehicle: saline with Tween-80 97 % of control | dose: 25.0 mg/kg/injection, schedule: Q04DX003 (ip), vehicle: saline with Tween-80 97 % of control | [1] 108 % of control | dose: 50.0 mg/kg/injection, schedule: Q04DX003 (ip), vehicle: saline with Tween-80 95 % of control | [2] 100 % of control | [3] 101 % of control

Cn1c(=O)oc2ccccc2c1=S
inactive: [6] 96 % of control | [8] 100 % of control | [16] 100 % of control

CC(N)c1cccc2ccccc12 (stereo not given)
inactive: dose: 25.0 mg/kg/injection, schedule: Q04DX002 (ip), vehicle: saline 98 % of control | dose: 50.0 mg/kg/injection, schedule: Q04DX002 (ip), vehicle: saline 94 % of control | dose: 100.0 mg/kg/injection, schedule: Q04DX002 (ip), vehicle: saline 98 % of control

C1C2CC3C1C3/C2=N\N=C1/C2CC3C(C2)C13
inactive: dose: 75.0 mg/kg/injection, schedule: Q01DX001 (ip), vehicle: saline 101 % of control | dose: 150.0 mg/kg/injection, schedule: Q01DX001 (ip), vehicle: saline 89 % of control | dose: 300.0 mg/kg/injection, schedule: Q01DX001 (ip), vehicle: saline 98 % of control

CC(C)NNC(=O)C(C)O (stereo not given)
inactive: dose: 25.0 mg/kg/injection, schedule: Q01DX009 (ip), vehicle: saline 93 % of control | [15] 109 % of control | dose: 50.0 mg/kg/injection, schedule: Q01DX009 (ip), vehicle: saline 90 % of control | [12] 96 % of control | [5] 97 % of control | [6] 93 % of control | [7] 87 % of control | [8] 112 % of control | [11] 95 % of control | [16] 96 % of control

CCOC(=O)c1cnc(OCC)nc1Nc1ccccc1Br
inactive: dose: 100.0 mg/kg/injection, schedule: Q01DX001 (ip), vehicle: Klucel (hydroxypropylcellulose) (HPC) 100 % of control | dose: 200.0 mg/kg/injection, schedule: Q01DX001 (ip), vehicle: Klucel (hydroxypropylcellulose) (HPC) 95 % of control | dose: 400.0 mg/kg/injection, schedule: Q01DX001 (ip), vehicle: Klucel (hydroxypropylcellulose) (HPC) 97 % of control
